This assay deals with Acinetobacter baumannii ATCC 17978. The assay is described as follows: Antimicrobial susceptibility testing: 90% growth inhibitory concentration (IC90) determination. In kind it is cell-based. Conditions: 90% growth inhibitory concentration, Acinetobacter baumannii ATCC17978, Iso-Sensitest broth, OD 600 nm over 16h, read-out: ATCC17978 IC90. Summed up:
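Compounds serially twofold diluted (e.g. 50 to 0.097 μM final) in Iso-Sensitest broth, inoculated at ~5×10^(5) CFU/ml, incubated at 35±2° C. OD600 read every 20 minutes over 16h. IC90 taken as concentration inhibiting 90% of growth during logarithmic phase.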

Setting [1] is: Acinetobacter baumannii, ATCC17978, 16 h.

Data on 27 compounds can be found in patent publication US20230012368A1 (Hoffmann-La Roche Inc., priority 2018, published 2023).

Where a name gives a salt, the structure may show the parent alone. Read-outs that look alike come from different tables or passages of the source.

What is called IC90 is the point of the concentration-response curve where the effect stands at 90%.

For the compound `COc1ccc(-c2cnc3c(Nc4ccc(C(=O)NC[C@@H](N)CNC(=O)[C@@H]5C[C@@H](O)CN5)c(C)c4)nccn23)c(F)c1F` [Example 468, (2S,4R)-N-[(2R)-2-amino-3-[[4-[[3-(2,3-difluoro-4-methoxy-phenyl)imidazo[1,2-a]pyrazin-8-yl]amino]-2-methyl-benzoyl]amino]propyl]-4-hydroxy-pyrrolidine-2-carboxamide; formic acid], the 90% effect concentration (IC90) under setting [1] was found to be 480 nM.
`CCc1cc(Nc2nccn3c(-c4ccc(Oc5ccc(OCCCN)cn5)c(F)c4F)cnc23)ccc1C(=O)NC` [Example 511, 4-[[3-[4-[[5-(3-aminopropoxy)-2-pyridyl]oxy]-2,3-difluoro-phenyl]imidazo[1,2-a]pyrazin-8-yl]amino]-2-ethyl-N-methyl-benzamide; formic acid]: the IC90 came out at 480 nM.
Turning to `COc1ccc(-c2cnc3c(Nc4ccc(C(=O)N(C)CCCN)cc4)nccn23)cc1` [Example 33, N-(3-aminopropyl)-4-((3-(4-methoxyphenyl)imidazo [1,2-a]pyrazin-8-yl)amino)-N-methylbenzamide hydrochloride], the IC90 under setting [1] stood at 4900 nM.
Same read-out and setting: the figure for `CCc1cc(Nc2nccn3c(-c4ccc(Oc5ccncn5)c(F)c4F)cnc23)ccc1C(=O)NCCCNC(=O)NCCNCCCN` [Example 565, N-[3-[2-(3-aminopropylamino)ethylcar-bamoylamino]propyl]-4-[[3-(2,3-difluoro-4-pyrimidin-4-yloxy-phenyl)imidazo[1,2-a]pyrazin-8-yl]amino]-2-ethyl-benzamide; formic acid] is 300 nM; for `Cc1cc(Nc2nccn3c(-c4ccc(OC(F)F)cc4)cnc23)ccc1C(=O)N(CCO)CCO` [Example 262, 4-[[3-[4-(difluoromethoxy)phenyl]im-idazo[1,2-a]pyrazin-8-yl]amino]-N,N-bis(2-hydroxyethyl)-2-methylbenzamide] it is 5000 nM.
The same measure, in the same setting: for `COc1ccc(-c2cnc3c(Nc4cc(F)c(C(=O)NCCCN)c(F)c4)nccn23)c(F)c1F` [Example 435, N-(3-aminopropyl)-4-((3-(2,3-difluoro-4-methoxyphenyl)imidazo[1,2-a]pyrazin-8-yl)amino)-2,6-difluorobenzamide] the value was 730 nM; for `Cc1cc(Nc2nccn3c(-c4ccc(OC(F)F)cc4)cnc23)ccc1C(=O)NCC1CCN(C(=N)N)CC1` [Example 24, N-((1-carbamimidoyl-piperidin-4-yl)methyl)-4-((3-(4-(difluoromethoxy)phenyl)imidazo[1,2-a]pyrazin-8-yl)amino)-2-methylbenzamide], 340 nM; for `CCc1cc(Nc2nccn3c(-c4ccc(OC(F)F)cc4)cnc23)ccc1C(=O)N(C)CCN1CCNCC1` [Example 224, 4-[[3-[4-(difluoromethoxy)phenyl]im-idazo[1,2-a]pyrazin-8-yl]amino]-2-ethyl-N-methyl-N-(2-piperazin-1-ylethyl)benzamide;hydrochlo-ride], 1100 nM.
Consider `CCc1cc(Nc2nccn3c(-c4ccc(OC(F)F)c(F)c4F)cnc23)ccc1C(=O)NCCC(=O)N1CCNCC1` [Example 542, 4-((3-(4-(difluoromethoxy)-2,3-difluorophenyl)imidazo[1,2-a]pyrazin-8-yl)amino)-2-ethyl-N-(3-oxo-3-(piperazin-1-yl)propyl)benzamide 2,2,2-trifluoroacetate], for which the IC90 under setting [1] is 54 nM.
On the same count and under the same terms, the figure for `CCc1cc(Nc2nccn3c(-c4ccc(Cl)c(F)c4F)cnc23)ccc1C(=O)NCCNC(=O)[C@H](N)CCCNC(=N)N` [Example 130, N-[2-[[(2R)-2-amino-5-guanidino-pentanoyl]amino]ethyl]-4-[[3-(4-chloro-2,3-difluoro-phenyl)imidazo[1,2-a]pyrazin-8-yl]amino]-2-ethyl-benzamide formate] is 640 nM; for `CCc1cc(Nc2nccn3c(-c4ccc(OC)c(F)c4F)cnc23)ccc1C(=O)NCCNC(=O)[C@@H](N)CCCNC1=NCCN1` [Example 128, N-[2-[[(2S)-2-amino-5-(4,5-dihydro-1H-imidazol-2-ylamino)pentanoyl]amino]ethyl]-4-[[3-(2,3-difluoro-4-methoxy-phenyl)imidazo[1,2-a]pyrazin-8-yl]amino]-2-ethyl-benzamide formate] it is 240 nM; for `CN(CCCn1c(=O)c(=O)[nH]n(C)c1=S)C(=O)c1ccc(Nc2nccn3c(-c4ccc(OCC#N)c(F)c4F)cnc23)cc1Cl` [Example 396, 2-chloro-4-((3-(4-(cyanomethoxy)-2,3-difluorophenyl)imidazo[1,2-a]pyrazin-8-yl)amino)-N-methyl-N-(3-(2-methyl-5,6-dioxo-3-thioxo-1,2,4-triazinan-4-yl)propyl)benzamide] it is 570 nM.
Regarding `COc1ccc(-c2cnc3c(Nc4ccc(C(=O)N(C)CCN(C)C)cc4)nccn23)cc1Cl` [Example 28, 4-((3-(3-chloro-4-methoxyphenyl)imidazo [1,2-a]pyrazin-8-yl)amino)-N-(2-(dimethylamino)ethyl)-N-methylbenzamide], the 90% effect concentration (IC90) under setting [1] worked out at 3600 nM.
With `CCc1cc(Nc2nccn3c(-c4ccc(OC)c(F)c4F)cnc23)ccc1C(=O)NCCCNC(=O)NCCCN` [Example 120], under setting [1], the concentration for an effect of 90% (IC90) stood at 140 nM.
Still for that read-out and setting: for `Cc1cc(Nc2nccn3c(-c4ccc(Cl)c(F)c4F)cnc23)ccc1C(=O)NCC1CCNCC1` [Example 253, 4-[[3-(4-chloro-2,3-difluorophenyl)imidazo[1,2-a]pyrazin-8-yl]amino]-2-methyl-N-(piperidin-4-ylmethyl)benzamide; hydrochlo-ride] the value was 2900 nM; for `Cc1cc(Nc2nccn3c(-c4ccc(OC(F)F)cc4)cnc23)ccc1C(=O)NCCNC(=O)N1CCNCC1` [Example 345, N-[2-[[4-[[3-[4-(difluoromethoxy)phenyl]im-idazo[1,2-a]pyrazin-8-yl]amino]-2-methylbenzoyl]amino]ethyl] piperazine-1-carboxamide], 900 nM.
The same measure, in the same setting: for `CCc1cc(Nc2nccn3c(-c4ccc(Oc5ccccn5)c(F)c4F)cnc23)ccc1C(=O)NCCCC(=O)N1CCN[C@H](CO)C1` [Example 476, 4-[[3-[2,3-difluoro-4-(2-pyridyloxy)phenyl]imidazo [1,2-a]pyrazin-8-yl]amino]-2-ethyl-N-[4-[(3S)-3-(hydroxymethyl)piperazin-1-yl]-4-oxo-butyl]benzamide] the value was 360 nM.
For the compound “4-((3-(4- (difluoromethoxy) phenyl)imidazo[1,2- a]pyrazin-8- yl)amino)-N-methyl- 2- (trifluoromethyl) benzamide [Example 53]”, the IC90 was 240 nM.
Regarding `COc1ccc(-c2cnc3c(Nc4ccc(C(=O)NCCCC[C@H](N)C(=O)O)c(C)c4)nccn23)c(F)c1F` [Example 349, (2S)-2-amino-6-[[4-[[3-(2,3-difluoro-4-methoxyphenyl)imidazo[1,2-a]pyrazin-8-yl]amino]-2-methylbenzoyl]amino]hexa-noic acid;2,2,2-trifluoroacetic acid], the concentration for an effect of 90% (IC90) under setting [1] amounted to 1100 nM.
`Cc1cc(Nc2nccn3c(-c4ccc(OC(F)F)c(F)c4)cnc23)ccc1C(=O)N(C)CCC1CCNCC1` [Example 89, 4-((3-(4-(difluoromethoxy)-3-fluorophenyl)imidazo [1,2-a]pyrazin-8-yl)amino)-N,2-dimethyl-N-(2-(piperidin-4-yl)ethyl)benzamide hydrochloride]: the IC90 was determined as 230 nM.
With `COc1ccc(-c2cnc3c(Nc4ccc(C(=O)N(C)CC(=O)N(C)C)c(C)c4)nccn23)cc1F` [Example 7, N-[2-(dimethylamino)-2-oxo-ethyl]-4-[[3-(3-fluoro-4-methoxy-phenyl)imidazo[1,2-a]pyrazin-8-yl]amino]-N,2-dimethyl-benzamide], under setting [1], the 90% effect concentration (IC90) was found to be 1900 nM.
Still for that read-out and setting: for `CCc1cc(Nc2nccn3c(-c4ccc(OC)c(F)c4F)cnc23)ccc1C(=O)NCCN1CCNCC1` [Example 323, 4-[[3-(2,3-difluoro-4-methoxyphenyl)imidazo[1,2-a]pyrazin-8-yl]amino]-2-ethyl-N-(2-piperazin-1-ylethyl)benzamide] the value was 60 nM; for `Cc1cc(Nc2nccn3c(-c4ccc(Cl)c(F)c4F)cnc23)ccc1C(=O)N(C)CCN` [Example 241, N-(2-aminoethyl)-4-[[3-(4-chloro-2,3-difluorophenyl)imidazo[1,2-a]pyrazin-8-yl]amino]-N,2-dimethylbenzamide;hydrochlo-ride], 1900 nM.
Still for that read-out and setting: the figure for `Cc1cc(Nc2nccn3c(-c4ccc(OC(F)F)cc4)cnc23)ccc1C(=O)NC[C@H](C)N` [Example 254, N-[(2S)-2-aminopropyl]-4-[[3-[4-(difluoromethoxy)phenyl]im-dazo[1,2-a]pyrazin-8-yl]amino]-2-methylbenzamide; hydrochlo-ride] is 3300 nM.
On the same count and under the same terms, the figure for `CCc1cc(Nc2nccn3c(-c4ccc(OC)c(F)c4F)cnc23)ccc1C(=O)NCCCNC(=O)[C@H](CCCNC(=N)N)NC(=O)[C@@H](N)CCC(=O)O` [Example 156, (S)-4-amino-5-(((S)-1-((3-(4-((3-(2,3-difluoro-4-methoxyphenyl)imidazo[1,2-a]pyrazin-8-yl)amino)-2-ethylbenzamido)propyl)amino)-5-guanidino-1-oxopentan-2-yl)amino)-5-oxopentanoic acid trihydrochloride] is 340 nM; for `CCc1cc(Nc2nccn3c(-c4ccc(OC(F)F)c(F)c4F)cnc23)ccc1C(=O)NCCCO[C@H]1O[C@H](CO)[C@@H](O)[C@H](O)[C@H]1O` [Example 328, 4-[[3-[4-(difluoromethoxy)-2,3-difluorophenyl]imidazo[1,2-a]pyrazin-8-yl]amino]-2-ethyl-N-[3-[(2S,3R,4S,5S,6R)-3,4,5-trihydroxy-6-(hydroxymethyl)oxan-2-yl]oxypropyl]benzamide] it is 300 nM.
`Cc1cc(Nc2nccn3c(-c4ccc(OC(F)F)cc4)cnc23)ccc1C(=O)N(C)CCCCN1CCOCC1` [Example 208, 4-[[3-[4-(difluoromethoxy)phenyl]im-idazo[1,2-a]pyrazin-8-yl]amino]-N,2-dimethyl-N-(4-morpholin-4-ylbutyl)benzamide]: the IC90 under setting [1] was 580 nM.
